Test results as given in US12649751B2 (Arcus Biosciences, Inc., priority 2022, dated 2026).
Like-named read-outs stand apart in the source and are kept apart here.

Columns and labels:
HPK1 = HPK1 (Homo sapiens, UniProt Q92918); test: HPK1 Biochemical Assay (ADP-Glo luminescence; low ATP 10 μM or high ATP 200 μM)
[1] = tested on: p-SLP-76 (Ser376) in Jurkat cells; test: pSLP76 Cellular Assay (AlphaLISA SureFire Ultra p-SLP-76 (Ser376), anti-CD3 activated Jurkat cells); type: cell-based; conditions: Homo sapiens; Jurkat cells, anti-CD3 stimulation, pSLP76; read-out: Cellular Potency
Procedure, shortened: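 Jurkat cells, serum-starved overnight in Opti-MEM then in HBSS, preincubated 1 h at 37 °C with 22-point 2-fold compound dilutions, then stimulated with anti-CD3 (0.025 mg/ml added solution) for 45 min. Lysate p-SLP-76 (Ser376) measured by AlphaLISA at 570 nm; IC50 from 4-parameter logistic fit.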

[2] = 2 nM HPK1, 10 μM ATP, read-out: Biochemical Potency (low ATP)

HPK1, sequence (Q92918 whole entry, species assumed): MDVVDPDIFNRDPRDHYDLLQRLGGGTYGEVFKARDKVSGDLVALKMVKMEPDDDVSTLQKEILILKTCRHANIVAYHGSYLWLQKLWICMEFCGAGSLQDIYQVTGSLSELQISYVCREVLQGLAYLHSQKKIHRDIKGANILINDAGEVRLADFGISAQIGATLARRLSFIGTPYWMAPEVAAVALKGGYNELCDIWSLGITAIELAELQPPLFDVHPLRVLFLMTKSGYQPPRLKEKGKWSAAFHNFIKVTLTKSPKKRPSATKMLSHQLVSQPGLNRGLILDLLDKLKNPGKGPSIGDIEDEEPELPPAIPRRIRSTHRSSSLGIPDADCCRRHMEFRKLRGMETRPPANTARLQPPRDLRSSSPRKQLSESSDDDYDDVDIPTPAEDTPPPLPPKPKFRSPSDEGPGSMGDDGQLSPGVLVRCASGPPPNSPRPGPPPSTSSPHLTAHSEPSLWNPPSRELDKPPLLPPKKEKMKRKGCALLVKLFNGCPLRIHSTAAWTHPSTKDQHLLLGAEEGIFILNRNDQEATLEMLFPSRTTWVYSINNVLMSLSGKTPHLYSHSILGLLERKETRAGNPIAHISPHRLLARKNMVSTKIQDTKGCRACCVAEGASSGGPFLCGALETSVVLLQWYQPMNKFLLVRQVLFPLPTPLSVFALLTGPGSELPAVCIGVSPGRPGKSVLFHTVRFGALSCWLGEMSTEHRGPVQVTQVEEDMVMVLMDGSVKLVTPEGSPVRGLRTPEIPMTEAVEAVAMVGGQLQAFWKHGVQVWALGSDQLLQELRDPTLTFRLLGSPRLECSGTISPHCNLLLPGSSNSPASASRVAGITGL

Row | IC50 (HPK1; [2]) [nM] | IC50 [1] [nM] | IC50 (HPK1; 5 nM HPK1, 200 μM ATP, read-out: Biochemical Potency (high ATP)) [nM] | SMILES
1 | < 100 | 1000 to 5000 | – | FC(F)n1cc(-c2nc3cc(Nc4ccc(C5CCOCC5)c(CN5CCCC5)n4)ncc3s2)cn1 [Example 224, N-{2-[1-(Difluoromethyl)-1H-pyrazol-4-yl]-[1,3]thiazolo[5,4-c]pyridin-6-yl}-5-(oxan-4-yl)-6-[(pyrrolidin-1-yl)methyl]pyridin-2-amine]
2 | < 100 | 100 to 1000 | – | c1cncc(-c2nc3cc(Nc4ccc(C5CCOCC5)c(CN5CCCC5)n4)ncc3s2)c1 [Example 225, 5-(Oxan-4-yl)-N-[2-(pyridin-3-yl)-[1,3]thiazolo[5,4-c]pyridin-6-yl]-6-[(pyrrolidin-1-yl)methyl]pyridin-2-amine]
3 | < 100 | 100 to 1000 | – | CC(C)c1ccc(Nc2cc3nc(-c4cnn(C)c4)sc3cn2)nc1CN1CCCC1 [Example 227, N-[2-(1-Methyl-1H-pyrazol-4-yl)-[1,3]thiazolo[5,4-c]pyridin-6-yl]-5-(propan-2-yl)-6-[(pyrrolidin-1-yl)methyl]pyridin-2-amine]
4 | < 100 | 1000 to 5000 | – | C[C@H]1COCCN1c1nc2cc(Nc3ccc(C4CCOCC4)c(CN4CCCC4)n3)ncc2s1 [Example 235, N-{2-[(3S)-3-Methylmorpholin-4-yl]-[1,3]thiazolo[5,4-c]pyridin-6-yl}-5-(oxan-4-yl)-6-[(pyrrolidin-1-yl)methyl]pyridin-2-amine]
5 | < 100 | < 100 | < 100 | Cc1cc(-c2nc3cc(Nc4ccc(C5CCOCC5)c(N5C[C@@H]6CCN(C)[C@@H]6C5)n4)ncc3s2)ccn1 [Example 248, 6-[(3aS,6aS)-1-Methyl-octahydropyrrolo[3,4-b]pyrrol-5-yl]-N-[2-(2-methylpyridin-4-yl)-[1,3]thiazolo[5,4-c]pyridin-6-yl]-5-(oxan-4-yl)pyridin-2-amine]

Further lines, the compound ahead of its results:

Row | SMILES | IC50 (HPK1; [2]) [nM] | IC50 [1] [nM] | IC50 (HPK1; 5 nM HPK1, 200 μM ATP, read-out: Biochemical Potency (high ATP)) [nM]
6 | Cc1cccnc1-c1nc2cc(Nc3ccc(C4CCOCC4)c(CN4CCCC4)n3)ncc2s1 [Example 212, N-[2-(3-Methylpyridin-2-yl)-[1,3]thiazolo[5,4-c]pyridin-6-yl]-5-(oxan-4-yl)-6-[(pyrrolidin-1-yl)methyl]pyridin-2-amine] | < 100 | < 100 | –
7 | Cc1cccnc1-c1nc2cc(Nc3ccc(C4CCOCC4)c(CN4CC[C@H](F)C4)n3)ncc2s1 [Example 214, 6-{[(3S)-3-Fluoropyrrolidin-1-yl]methyl}-N-[2-(3-methylpyridin-2-yl)-[1,3]thiazolo[5,4-c]pyridin-6-yl]-5-(oxan-4-yl)pyridin-2-amine] | < 100 | 100 to 1000 | –
8 | c1cc(-c2nc3cc(Nc4ccc(C5CCOCC5)c(CN5CCCC5)n4)ncc3s2)ccn1 [Example 216, 5-(Oxan-4-yl)-N-[2-(pyridin-4-yl)-[1,3]thiazolo[5,4-c]pyridin-6-yl]-6-[(pyrrolidin-1-yl)methyl]pyridin-2-amine] | < 100 | < 100 | –
9 | Cn1ccnc1-c1nc2cc(Nc3ccc(C4CCOCC4)c(CN4CCCC4)n3)ncc2s1 [Example 217, N-[2-(1-Methyl-1H-imidazol-2-yl)-[1,3]thiazolo[5,4-c]pyridin-6-yl]-5-(oxan-4-yl)-6-[(pyrrolidin-1-yl)methyl]pyridin-2-amine] | < 100 | < 100 | –
10 | Cc1cc(-c2nc3cc(Nc4ccc(C5CCOCC5)c(CN5CCC(F)(F)C5)n4)ncc3s2)ccn1 [Example 220, 6-[(3,3-Difluoropyrrolidin-1-yl)methyl]-N-[2-(2-methylpyridin-4-yl)-[1,3]thiazolo[5,4-c]pyridin-6-yl]-5-(oxan-4-yl)pyridin-2-amine] | < 100 | 100 to 1000 | –
11 | Cc1cc(-c2nc3cc(Nc4ccc(C5CCOCC5)c(CN[C@H]5CCOC5)n4)ncc3s2)ccn1 [Example 221, N-[2-(2-Methylpyridin-4-yl)-[1,3]thiazolo[5,4-c]pyridin-6-yl]-5-(oxan-4-yl)-6-({[(3S)-oxolan-3-yl]amino}methyl)pyridin-2-amine] | < 100 | 100 to 1000 | –
